± gives the standard deviation of the averaged measurements.

The record followed here is the supplement of paper PMC10331698.

What all share (experiment): level (log10 ratio to DMSO vehicle control); higher = higher biomarker level / cell amount than vehicle control
What all share (conditions): in DMSO

Compound in test [1]: O=C(O)C(F)(F)C(F)(F)C(F)(F)C(F)(F)C(F)(F)C(F)(F)C(F)(F)C(F)(F)C(F)(F)C(F)F [11-H-Perfluoroundecanoic acid]
As to the method:
(§1)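 BioMAP Diversity Plus panel of 12 human primary cell co-culture systems (3C, 4H, LPS, SAg, BT, BF4T, BE3C, CASM3C, HDF3CGF, KF3CT, MyoF, Mphg). Compounds were added 1 h before stimulation and left for 24 h (MyoF 48 h; BT 72 h for soluble read-outs or 6 d for IgG). Biomarkers were read by ELISA, cytotoxicity by SRB, PBMC viability and proliferation by Alamar Blue. Each well value was divided by the mean of 8 DMSO control wells on the same plate and log10 transformed; duplicate blinded samples were tested at 4 concentrations.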

Compound in test [2]: NC(=O)C(F)(F)C(F)(F)C(F)(F)C(F)F
The method, then: as §1

Compound in test [3]: C=C(C)C(=O)OCCC(F)(F)C(F)(F)C(F)(F)C(F)(F)C(F)(F)C(F)(F)F [6:2 Fluorotelomer methacrylate]
The method, then:
as §1

Compound in test [4]: FC(F)(F)C(F)(F)C(F)(F)C(F)(F)C(F)(F)C(F)(F)CC1CO1 [3-(Perfluorohexyl)-1,2-epoxypropane]
As to the method:
as §1

Compound in test [5]: O=S(=O)(O)C(F)(F)C(F)(F)C(F)(F)C(F)(F)C(F)(F)C(F)(F)C(F)(F)C(F)(F)C(F)(F)C(F)(F)F [Sodium perfluorodecanesulfonate]
The method, then:
as §1

As for KF3CT:PAI-I, the “level (log10)” value was -0.0025 ± 0.03 in test [1] (6700 nM); -0.12 ± 0.044 in test [1] (20000 nM); -0.005 ± 0.0042 in test [2] (6700 nM); -0.0085 ± 0.0064 in test [2] (20000 nM); -0.007 ± 0.02 in test [2] (60000 nM); -0.0465 ± 0.018 in test [3] (6700 nM). In addition, the “level (log10)” value in test [3] (20000 nM) is -0.035 ± 0.016; in test [3] (60000 nM), -0.0535 ± 0.03; in test [4] (6700 nM) it was 0.0145 ± 0.032; in test [4] (20000 nM) it was 0.019 ± 0.0014; in test [4] (60000 nM) it was 0.0195 ± 0.0021; in test [5] (1500 nM), -0.0085 ± 0.046. Also, the entries for the “level (log10)” value in test [5] (4400 nM), in test [5] (13000 nM) and in test [5] (40000 nM) were -0.021 ± 0.013, -0.0415 ± 0.0035 and -0.0715 ± 0.028, respectively.
As for 3C:CD87/uPAR, the “level (log10)” value in test [1] (6700 nM) is -0.0065 ± 0.018; in test [1] (20000 nM), 0.0045 ± 0.023; in test [2] (6700 nM), -0.0235 ± 0.036; in test [2] (20000 nM), -0.022 ± 0.03; in test [2] (60000 nM) it was -0.023 ± 0.027; in test [3] (6700 nM), 0.003 ± 0.035. The “level (log10)” value is 0.004 ± 0.034 in test [3] (20000 nM); 0.0195 ± 0.039 in test [3] (60000 nM); 0.03 ± 0.0085 in test [4] (6700 nM); 0.032 ± 0.0085 in test [4] (20000 nM); 0.052 ± 0.017 in test [4] (60000 nM); -0.0055 ± 0.047 in test [5] (1500 nM). Moreover, the figures for the “level (log10)” value in test [5] (4400 nM), in test [5] (13000 nM) and in test [5] (40000 nM) were -0.0275 ± 0.013, -0.009 ± 0.037 and -0.222 ± 0.0085, respectively.
Turning to HDF3CGF:CXCL10/IP-10, the “level (log10)” value was -0.117 ± 0.011 in test [1] (6700 nM); -0.331 ± 0.0071 in test [1] (20000 nM); -0.001 ± 0.0014 in test [2] (6700 nM); -0.0065 ± 0.0021 in test [2] (20000 nM); 0.002 ± 0.011 in test [2] (60000 nM); -0.0075 ± 0.016 in test [3] (6700 nM). Moreover, the “level (log10)” value in test [3] (20000 nM) is -0.019 ± 0.021; in test [3] (60000 nM), -0.0225 ± 0.026; in test [4] (6700 nM), 0.005 ± 0.031; in test [4] (20000 nM) it was 0.012 ± 0.034; in test [4] (60000 nM), -0.0095 ± 0.037; in test [5] (1500 nM) it was -0.001 ± 0.027. Moreover, the figures for the “level (log10)” value in test [5] (4400 nM), in test [5] (13000 nM) and in test [5] (40000 nM) were -0.065 ± 0.0042, -0.025 ± 0.02 and 0.012, respectively.
